Assay results as given in patent publication EP4273147A1, “SUBSTITUTED SPIROLACTAMS, SALTS THEREOF AND THEIR USE AS HERBICIDALLY ACTIVE SUBSTANCES” (Bayer Aktiengesellschaft, priority 2022, dated 2023).

Columns and labels:
TRZAS = assay: Post-emergence effects on crop plants (Table F2); format: in vivo, Triticum aestivum; settings: application rate 320 g/ha, crop plant TRZAS
Excerpt: (§1) 2 to 3 weeks after sowing, the test plants were sprayed in the single-leaf stage.

VERPE [1] = assay: Herbicidal pre-emergence action (Table A11); format: in vivo, Veronica persica; settings: application rate 1280 g/ha; visual grading after ca. 3 weeks
How it was run: (§2)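 In each pot of sandy loam, seed of a single monocot weed species was sown alongside seed of a single dicot weed species, and the seed was covered with soil.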

ALOMY [2] = assay: Herbicidal pre-emergence action (Table A9); format: in vivo, Alopecurus myosuroides; settings: application rate 1280 g/ha; visual grading after ca. 3 weeks
How it was run: as §2

MATIN [3] = assay: Herbicidal pre-emergence action, section C (Table C8); format: in vivo, Matricaria inodora; settings: application rate 320 g/ha; visual grading after ca. 3 weeks
BRSNW = assay: Post-emergence effects on crop plants (Table F5); format: in vivo, Brassica napus; settings: crop plant BRSNW
Excerpt: as §1

VERPE [4] = assay: Herbicidal post-emergence action (Table B10); format: in vivo, Veronica persica; settings: application rate 1280 g/ha
How it was run: (§3)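 Greenhouse pot assay, sandy loam soil, one weed species per pot. Application at one-leaf stage. Readout ~3 wk post-treatment: visual % activity, 100 = dead, 0 = as untreated.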

ECHCG [5] = assay: Herbicidal post-emergence action, section E (Table E5); format: in vivo, Echinochloa crus-galli; settings: application rate 320 g/ha; assessed visually after ca. 3 weeks
Excerpt: as §1

LOLRI [6] = assay: Herbicidal pre-emergence action, section C (Table C7); format: in vivo, Lolium rigidum; settings: application rate 320 g/ha; visual grading after ca. 3 weeks
Excerpt: (§4) Seeds of mono- and dicotyledonous weed plants and crop plants were sown, in plastic or organic planting pots, in sandy loam and covered with soil. The compounds according to the invention, formulated in the form of wettable powders (WP) or as emulsifiable concentrates (EC), were applied to the surface of the covering soil as aqueous suspension or emulsion, with the addition of 0.5% of an additive, at an application rate of 600 1 of water/ha (converted). Following treatment, the pots were placed in a greenhouse and kept under optimum growth conditions for the test plants.

VIOTR [7] = assay: Herbicidal pre-emergence action, section C (Table C12); format: in vivo, Viola tricolor; settings: visual grading after ca. 3 weeks
ECHCG [8] = assay: Herbicidal pre-emergence action, section C (Table C6); format: in vivo, Echinochloa crus-galli; settings: visual grading after ca. 3 weeks
SETVI [9] = assay: Herbicidal post-emergence action (Table B8); format: in vivo, Setaria viridis; settings: application rate 1280 g/ha
How it was run: as §3

POLCO = assay: Herbicidal pre-emergence action, section C (Table C9); format: in vivo, Polygonum convolvulus; settings: visual grading after ca. 3 weeks
ECHCG [10] = assay: Herbicidal post-emergence action (Table B3); format: in vivo, Echinochloa crus-galli; settings: Echinochloa crus-galli, post-emergence, 504 h; application rate 1280 g/ha; rated visually after about 3 weeks; read-out: post-emergence activity against ECHCG
How it was run: as §3

ABUTH [11] = assay: Herbicidal pre-emergence action, section C (Table C1); format: in vivo, Abutilon theophrasti; settings: application rate 320 g/ha; visual grading after ca. 3 weeks
Excerpt: as §4

ORYZA = assay: Post-emergence effects on crop plants (Table F3); format: in vivo, Oryza sativa; settings: application rate 80 g/ha, crop plant ORYZA
Excerpt: as §1

SETVI [12] = assay: Herbicidal pre-emergence action, section C (Table C10); format: in vivo, Setaria viridis; settings: application rate 80 g/ha; visual grading after ca. 3 weeks
MATIN [13] = assay: Herbicidal pre-emergence action (Table A4); format: in vivo, Matricaria inodora; settings: application rate 320 g/ha; visual grading after ca. 3 weeks
How it was run: as §2

ALOMY [14] = assay: Herbicidal post-emergence action, section E (Table E2); format: in vivo, Alopecurus myosuroides; settings: assessed visually after ca. 3 weeks
Excerpt: as §1

KCHSC = assay: Herbicidal pre-emergence action (Table A10); format: in vivo, Kochia scoparia; settings: application rate 1280 g/ha; visual grading after ca. 3 weeks
How it was run: as §2

ABUTH [15] = assay: Herbicidal post-emergence action, section E (Table E1); format: in vivo, Abutilon theophrasti; settings: application rate 320 g/ha; assessed visually after ca. 3 weeks
Excerpt: as §1

ECHCG [16] = assay: Herbicidal pre-emergence action (Table A2); format: in vivo, Echinochloa crus-galli; settings: application rate 320 g/ha; visual grading after ca. 3 weeks
How it was run: as §2

POAAN [17] = assay: Herbicidal post-emergence action (Table B7); format: in vivo, Poa annua; settings: application rate 1280 g/ha
How it was run: as §3

ABUTH [18] = assay: Herbicidal pre-emergence action (Table A1); format: in vivo, Abutilon theophrasti; settings: application rate 1280 g/ha; visual grading after ca. 3 weeks vs untreated controls (100% = plants have died off, 0% = as control plants)
How it was run: as §2

ALOMY [19] = assay: Herbicidal pre-emergence action, section C (Table C2); format: in vivo, Alopecurus myosuroides; settings: application rate 320 g/ha; visual grading after ca. 3 weeks
ALOMY [20] = assay: Herbicidal post-emergence action (Table B2); format: in vivo, Alopecurus myosuroides; settings: application rate 1280 g/ha; rated visually after about 3 weeks
How it was run: as §3

SETVI [21] = assay: Herbicidal post-emergence action, section E (Table E8); format: in vivo, Setaria viridis; settings: application rate 320 g/ha; assessed visually after ca. 3 weeks
Excerpt: as §1

POAAN [22] = assay: Herbicidal pre-emergence action (Table A7); format: in vivo, Poa annua; settings: Poa annua, pre-emergence, 504 h; application rate 1280 g/ha; visual grading after ca. 3 weeks; read-out: pre-emergence activity against POAAN
How it was run: as §2

VERPE [23] = assay: Herbicidal pre-emergence action, section C (Table C11); format: in vivo, Veronica persica; settings: application rate 320 g/ha; visual grading after ca. 3 weeks
LOLRI [24] = assay: Herbicidal pre-emergence action (Table A3); format: in vivo, Lolium rigidum; settings: Lolium rigidum, pre-emergence, 504 h, application rate 320 g/ha; visual grading after ca. 3 weeks; read-out: pre-emergence activity against LOLRI
How it was run: as §2

SETVI [25] = assay: Herbicidal pre-emergence action (Table A5); format: in vivo, Setaria viridis; settings: application rate 1280 g/ha; visual grading after ca. 3 weeks
How it was run: as §2

ZEAMX = assay: Post-emergence effects on crop plants (Table F1); format: in vivo, Zea mays; settings: application rate 320 g/ha, crop plant ZEAMX
Excerpt: as §1

AMARE = assay: Herbicidal pre-emergence action, section C (Table C3); format: in vivo, Amaranthus retroflexus; settings: application rate 320 g/ha; visual grading after ca. 3 weeks
Excerpt: as §4

GLXMA = assay: Post-emergence effects on crop plants (Table F4); format: in vivo, Glycine max; settings: application rate 80 g/ha, crop plant GLXMA
Excerpt: as §1

DIGSA = assay: Herbicidal pre-emergence action, section C (Table C5); format: in vivo, Digitaria sanguinalis; settings: application rate 80 g/ha; visual grading after ca. 3 weeks
VERPE [26] = assay: Herbicidal post-emergence action, section E (Table E9); format: in vivo, Veronica persica; settings: application rate 320 g/ha; assessed visually after ca. 3 weeks
Excerpt: as §1

VIOTR [27] = assay: Herbicidal post-emergence action, section E (Table E10); format: in vivo, Viola tricolor; settings: application rate 320 g/ha; assessed visually after ca. 3 weeks
Excerpt: as §1

O=C1N(Cc2ccccc2)CCCC12CCCN(Cc1ccccc1F)C2=O (racemic) [I-010, 2-benzyl-8-(2-fluorobenzyl)-2,8-diazaspiro[5.5]undecane-1,7-dione]
100%: pre-emergence activity against LOLRI (LOLRI [6]) | pre-emergence activity against ECHCG (ECHCG [8]; application rate 80 g/ha) | pre-emergence activity against SETVI (SETVI [12]) | pre-emergence activity against ECHCG (ECHCG [16]) | pre-emergence activity against ALOMY (ALOMY [19]) | pest or weed control at 1280 g/ha (POAAN [22]) | pest or weed control at 320 g/ha (LOLRI [24])
0%: post-emergence activity against TRZAS (TRZAS) | post-emergence activity against BRSNW (BRSNW; application rate 320 g/ha) | post-emergence activity against ORYZA (ORYZA)
90%: pre-emergence activity against VERPE (VERPE [1]) | pre-emergence activity against ALOMY (ALOMY [2]) | pre-emergence activity against MATIN (MATIN [3]) | post-emergence activity against VERPE (VERPE [4]) | post-emergence activity against ECHCG (ECHCG [5]) | post-emergence activity against SETVI (SETVI [9]) | pest or weed control at 1280 g/ha (ECHCG [10]) | pre-emergence activity against ABUTH (ABUTH [11]) | pre-emergence activity against MATIN (MATIN [13]) | pre-emergence activity against KCHSC (KCHSC) | post-emergence activity against POAAN (POAAN [17]) | pre-emergence activity against ABUTH (ABUTH [18]) | post-emergence activity against ALOMY (ALOMY [20]) | pre-emergence activity against SETVI (SETVI [25])
80%: pre-emergence activity against VIOTR (VIOTR [7]; application rate 80 g/ha) | pre-emergence activity against POLCO (POLCO; application rate 320 g/ha) | post-emergence activity against ALOMY (ALOMY [14]; application rate 80 g/ha) | post-emergence activity against ABUTH (ABUTH [15]) | post-emergence activity against SETVI (SETVI [21]) | pre-emergence activity against VERPE (VERPE [23])

O=C1N(Cc2c(F)cccc2F)CCCC12CCCN(Cc1c(F)cccc1F)C2=O (racemic) [I-006, 2,8-bis[(2,6-difluorophenyl)methyl]-2,8-diazaspiro[5.5]undecane-1,7-dione]
100%: pre-emergence activity against LOLRI (LOLRI [6]) | pre-emergence activity against ECHCG (ECHCG [8]; application rate 320 g/ha) | pre-emergence activity against POLCO (POLCO; application rate 80 g/ha) | pre-emergence activity against DIGSA (DIGSA) | pre-emergence activity against SETVI (SETVI [12]) | pre-emergence activity against ALOMY (ALOMY [19])
90%: pre-emergence activity against VIOTR (VIOTR [7]; application rate 38 g/ha (so in the source)) | pre-emergence activity against AMARE (AMARE) | post-emergence activity against ALOMY (ALOMY [14]; application rate 320 g/ha) | pre-emergence activity against VERPE (VERPE [23])
80%: pre-emergence activity against MATIN (MATIN [3]) | post-emergence activity against ECHCG (ECHCG [5]) | post-emergence activity against VERPE (VERPE [26]) | post-emergence activity against ABUTH (ABUTH [15]) | post-emergence activity against VIOTR (VIOTR [27])
20%: post-emergence activity against BRSNW (BRSNW; application rate 80 g/ha) | post-emergence activity against ZEAMX (ZEAMX) | post-emergence activity against GLXMA (GLXMA)
10%: post-emergence activity against TRZAS (TRZAS) | post-emergence activity against ORYZA (ORYZA)
